The record followed here is ChEMBL document CHEMBL3400000, “The discovery of potent agonists for GPR88, an orphan GPCR, for the potential treatment of CNS disorders” (Bioorg Med Chem Lett, 2015).

Chain of G protein-coupled receptor 88 (Q9GZN0 whole entry): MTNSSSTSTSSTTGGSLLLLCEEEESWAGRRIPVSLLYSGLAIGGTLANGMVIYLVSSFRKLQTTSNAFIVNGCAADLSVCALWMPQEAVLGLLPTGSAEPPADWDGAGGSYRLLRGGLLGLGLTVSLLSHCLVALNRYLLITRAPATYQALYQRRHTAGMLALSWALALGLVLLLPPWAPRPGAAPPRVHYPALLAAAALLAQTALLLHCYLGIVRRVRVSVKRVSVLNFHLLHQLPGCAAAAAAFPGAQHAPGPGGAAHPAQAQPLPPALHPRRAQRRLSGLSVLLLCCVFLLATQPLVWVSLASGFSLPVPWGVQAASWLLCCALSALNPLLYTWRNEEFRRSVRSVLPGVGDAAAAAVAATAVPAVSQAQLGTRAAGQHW

This test concerns the target G protein-coupled receptor 88 (Homo sapiens, UniProt Q9GZN0). The experiment in a line: Agonist activity at GPR88 (unknown origin) transfected into cells assessed as cAMP accumulation by HTRF assay. In kind it is functional. In general terms: Changes in cAMP serve as a functional read-out for many G protein-coupled receptors.
For orientation: EC50 means the concentration giving half of the maximal effect. With `CC[C@H](C)[C@H](N)CN(C(=O)[C@@H]1C[C@H]1c1cccnc1)c1ccc(-c2ccccc2)cc1`, the EC50 is 1500 nM.

`CC[C@H](C)[C@H](N)CN(C(=O)[C@@H]1C[C@H]1c1ccccc1)c1ccc(-c2ccc(COC)cc2)cc1`: the 50% effective concentration (EC50) is 35 nM.

With `CC(C)C[C@H](N)CN(C(=O)[C@@H]1C[C@H]1c1ccccc1)c1ccc(-c2ccoc2)cc1`, the EC50 turned out to be 2000 nM.

As for `CC(C)C[C@H](N)CN(C(=O)[C@@H]1C[C@H]1c1ccccc1)c1ccc(-c2cccc(F)c2)cc1`, the concentration for a half-maximal effect (EC50) is 2100 nM.

For the compound `CC[C@H](C)[C@H](N)CN(C(=O)[C@@H]1C[C@H]1c1ccccc1)c1ccc(-c2ccc(OC)cc2)cc1`, the concentration for a half-maximal effect (EC50) came out at 120 nM.

Regarding `CC[C@H](C)[C@H](N)CN(C(=O)[C@@H]1C[C@H]1c1ccc(Cl)cc1)c1ccc(-c2ccccc2)cc1`, the half-maximal effective concentration (EC50) is 4300 nM.

As for `N[C@H](CN(C(=O)[C@@H]1C[C@H]1c1ccccc1)c1ccc(-c2ccccc2)cc1)c1ccccc1`, the EC50 came out at 4.7 nM.

For `CC(C)(N)CN(C(=O)[C@@H]1C[C@H]1c1ccccc1)c1ccc(-c2ccccc2)cc1`, the EC50 was determined as 1.4 nM.

As to `CC[C@H](C)[C@H](N)CN(C(=O)[C@@H]1C[C@H]1c1cccc(F)c1)c1ccc(-c2ccccc2)cc1`, the EC50 was 560 nM.

Take `CC(C)CCCN(C(=O)[C@@H]1C[C@H]1c1ccccc1)c1ccc(-c2ccccc2)cc1`: the half-maximal effective concentration (EC50) is above 100 nM.

For the compound `CC[C@H](C)[C@H](N)CN(C(=O)[C@@H]1C[C@H]1c1cccc(OC)c1)c1ccc(-c2ccccc2)cc1`, the 50% effective concentration (EC50) was 3000 nM.

In the case of `CC[C@H](C)[C@H](N)CN(C(=O)[C@@H]1C[C@H]1c1c(F)cccc1F)c1ccc(-c2ccccc2)cc1`, the EC50 came to 11000 nM.

With `N[C@@H](CC1CCCCC1)CN(C(=O)[C@@H]1C[C@H]1c1ccccc1)c1ccc(-c2ccccc2)cc1`, the EC50 was found to be 1.7 nM.

Take `CC[C@H](C)[C@H](N)CN(C(=O)[C@@H]1C[C@H]1c1ccoc1)c1ccc(-c2ccccc2)cc1`: the EC50 was found to be 580 nM.

As for `O=C([C@@H]1C[C@H]1c1ccccc1)N(CCNCC1CCCCC1)c1ccc(-c2ccccc2)cc1`, the concentration for a half-maximal effect (EC50) came to 6.6 nM.

Consider `CC(C)C[C@H](N)CN(C(=O)[C@@H]1C[C@H]1c1ccccc1)c1ccc(-c2ccsc2)cc1`, for which the EC50 was found to be 1200 nM.

On to `CC[C@H](C)[C@H](N)CN(C(=O)[C@@H]1C[C@H]1c1ccccc1)c1ccc(-c2ccccc2)cc1` (racemic), for which the EC50 was determined as 800 nM.

`CC(C)C[C@H](N)CN(C(=O)[C@@H]1C[C@H]1c1ccccc1)c1ccc(-c2ccc(F)cc2)cc1`: the EC50 was 900 nM.

Consider `CC[C@H](C)[C@H](N)CN(C(=O)[C@@H]1C[C@H]1c1nccs1)c1ccc(-c2ccccc2)cc1`, for which the concentration for a half-maximal effect (EC50) came out at 210 nM.

On to `CC(C)C[C@@H](N)CN(C(=O)[C@@H]1C[C@H]1c1ccccc1)c1ccc(-c2ccccc2)cc1`, for which the concentration for a half-maximal effect (EC50) worked out at 1.8 nM.

As for `CC[C@H](C)[C@H](N)CN(C(=O)[C@@H]1C[C@H]1c1ccsc1)c1ccc(-c2ccccc2)cc1`, the 50% effective concentration (EC50) amounted to 450 nM.

With `CC[C@H](C)[C@H](N)CN(C(=O)[C@@H]1C[C@H]1c1ccccc1)c1ccc(-c2ccc(NC(C)=O)cc2)cc1`, the EC50 came to 5500 nM.

Consider `CN[C@@H](CC(C)C)CN(C(=O)[C@@H]1C[C@H]1c1ccccc1)c1ccc(-c2ccccc2)cc1`, for which the half-maximal effective concentration (EC50) came out at 2 nM.

For the compound `CC[C@@H](C)[C@H](N)CN(C(=O)[C@@H]1C[C@H]1c1ccccc1)c1ccc(-c2ccccc2)cc1`, the half-maximal effective concentration (EC50) came out at 1.4 nM.

For `CC[C@H](C)[C@H](N)CN(C(=O)[C@@H]1C[C@H]1c1ccc(F)c(F)c1)c1ccc(-c2ccccc2)cc1`, the EC50 was 720 nM.

Take `CC[C@H](C)[C@H](N)CN(C(=O)[C@@H]1C[C@H]1c1ncccn1)c1ccc(-c2ccccc2)cc1`: the concentration for a half-maximal effect (EC50) was 130 nM.

Take `CC[C@H](C)[C@H](N)CN(C(=O)[C@@H]1C[C@H]1c1nc(C)cs1)c1ccc(-c2ccccc2)cc1`: the concentration giving a half-maximal response (EC50) came to 730 nM.

As for `CC[C@H](C)[C@H](N)CN(C(=O)[C@@H]1C[C@H]1c1ccccc1F)c1ccc(-c2ccccc2)cc1`, the concentration giving a half-maximal response (EC50) was found to be 650 nM.

For `CC(C)C[C@H](N)CCN(C(=O)[C@@H]1C[C@H]1c1ccccc1)c1ccc(-c2ccccc2)cc1`, the EC50 came to 3 nM.

For the compound `CCOc1ccc(-c2ccc(N(C[C@@H](N)[C@@H](C)CC)C(=O)[C@@H]3C[C@H]3c3ccccc3)cc2)cc1`, the 50% effective concentration (EC50) came out at 90 nM.
